Our source for the Kd values is article PMC8100071, “Lipid binding by the N-terminal motif mediates plasma membrane localization of Bordetella effector protein BteA” (The Journal of Biological Chemistry, 2021).

The assay addresses T1, LRT (GST-tagged N-terminal LRT domain of BteA) (Bordetella pertussis, UniProt Q7VSD3).
T1 construct: gene BP0500; N-terminal lipid raft targeting (membrane localization) domain, aa 1-130 of 656; N-terminal GST tag (pGEX-6P1) kept; E. coli Rosetta 2
Put plainly: SPR steady state, immobilized liposomes. It counts as binding.

Where two headings read alike, the source gives them in different places.

T1 sequence (Q7VSD3 entry or part of it): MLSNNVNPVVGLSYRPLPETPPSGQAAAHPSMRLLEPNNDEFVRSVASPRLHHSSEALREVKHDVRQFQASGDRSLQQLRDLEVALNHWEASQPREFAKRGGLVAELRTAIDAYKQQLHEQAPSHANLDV

Regarding `CCCCCCCC/C=C\CCCCCCCC(=O)O[C@H](COC(=O)CCCCCCCCCCCCCCC)COP(=O)(O)O` [PA], where the note is “read-out: KD (apparent), PA/PC 5:95 (mol) liposomes, 100 nm, 50 mM Tris-HCl pH 7.4, 150 mM NaCl, 0.005% Tween-20, 25 °C, Kd in terms of protein concentration”, the Kd turned out to be 492 ± 86 nM. Turning to `CCCCCCCC/C=C\CCCCCCCC(=O)O[C@H](COC(=O)CCCCCCCCCCCCCCC)COP(=O)(O)OC[C@H](N)C(=O)O` [PS], for the setting “read-out: KD (apparent), PS/PC 20:80 (mol) liposomes, 100 nm, 50 mM Tris-HCl pH 7.4, 150 mM NaCl, 0.005% Tween-20, 25 °C, Kd in terms of protein concentration, unit nM shared in the sentence, abstract gives ∼1.2 μM”, the Kd was determined as 1230 ± 245 nM.

On to `CCCCCCCC/C=C\CCCCCCCC(=O)OC[C@H](COP(=O)(O)O[C@@H]1[C@H](O)[C@H](O)[C@@H](OP(=O)(O)O)[C@H](OP(=O)(O)O)[C@H]1O)OC(=O)CCCCCCC/C=C\CCCCCCCC` [PIP2], for which the Kd came to 446 ± 65 nM.
